Measured values as given in ChEMBL document CHEMBL3638839, “Azetidine derivatives” (2015).

Target: T1, Fatty-acid amide hydrolase 1 (Homo sapiens, UniProt O00519)
T1 sequence (O00519 whole entry): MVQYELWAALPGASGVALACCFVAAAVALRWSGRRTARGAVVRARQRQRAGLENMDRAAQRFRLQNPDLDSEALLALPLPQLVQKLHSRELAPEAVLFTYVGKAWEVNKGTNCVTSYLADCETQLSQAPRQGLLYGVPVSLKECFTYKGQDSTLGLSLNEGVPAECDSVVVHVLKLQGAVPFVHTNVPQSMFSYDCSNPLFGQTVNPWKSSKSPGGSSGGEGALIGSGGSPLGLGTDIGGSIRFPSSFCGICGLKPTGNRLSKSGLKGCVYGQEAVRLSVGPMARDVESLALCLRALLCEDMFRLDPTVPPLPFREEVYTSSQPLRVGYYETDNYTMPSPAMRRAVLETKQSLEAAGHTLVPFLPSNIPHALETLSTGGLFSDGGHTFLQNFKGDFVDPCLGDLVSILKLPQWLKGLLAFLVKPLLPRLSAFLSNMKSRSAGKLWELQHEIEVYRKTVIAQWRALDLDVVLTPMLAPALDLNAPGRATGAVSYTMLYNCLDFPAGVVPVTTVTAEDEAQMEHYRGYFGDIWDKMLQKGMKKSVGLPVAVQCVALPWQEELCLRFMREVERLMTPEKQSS
Assay: Inhibition Assay: Human FAAH 1 activity was determined by measuring the liberation of the highly fluorescent 7-amino, 4-methyl Coumarin (AMC) generated during hydrolysis of the substrate arachidonoyl 7-amino, 4-methyl coumarin amide (AAMCA) by FAAH. Inhibition of human FAAH 1 activity was determined as a percentage reduction of the fluorescence determined in the absence of compound.The assay was carried out in black-walled, clear bottom, 384-well plates. 27.5 ul of human FAAH 1 protein (in FAAH assay buffer: 50 mM Hepes, 0.01% Triton X-100, 1 mM EDTA, 0.5 mg/ml BSA (fatty-acid-free), pH 8.2) was pre-incubated, at 10 nM, with increasing concentrations of compounds (2.5 ul in 100% DMSO) for 1 hour at room temperature. 2.5 ul of DMSO was added for total controls (100% FAAH activity) and 2.5 ul of URB-597, a known inhibitor of FAAH activity, (at a final, saturating, concentration of 10 uM) was used for non-specific controls (0 FAAH activity).

SMILES: COc1ccccc1-c1ccc(OC2CN(C(=O)Nc3cccnn3)C2)nc1
- IC50: 12 nM
